Tests used:
Type in all cases: in vivo
[1] = system: Echinochloa crus-galli (ECHCG); experiment: B1 Pre-emergence herbicidal activity; design: key to Pre-emergence herbicidal activity, ECHCG (damage score 0-5): 5=total damage to plant; 0=no damage to plant; conditions: pre-emergence application, evaluated after 13 days
Procedure, shortened: (§1)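 Seeds sown in standard soil in pots, held one day in a glasshouse (24/16 °C day/night, 14 h light, 65% humidity), then sprayed pre-emergence with compound in acetone/water (50:50) with 0.5% Tween 20. Plants grown under the same conditions, watered twice daily; damage scored after 13 days (0 = none, 5 = total).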

[2] = system: Lolium perenne (LOLPE); experiment: B1 Pre-emergence herbicidal activity; design: key to Pre-emergence herbicidal activity, LOLPE (damage score 0-5): 5=total damage to plant; 0=no damage to plant; conditions: pre-emergence application, evaluated after 13 days
Procedure, shortened: as §1

[3] = system: Echinochloa crus-galli (ECHCG); experiment: B2 Post-emergence herbicidal activity; design: key to Post-emergence herbicidal activity, ECHCG (damage score 0-5): 5=total damage to plant; 0=no damage to plant; conditions: post-emergence application, evaluated after 13 days
Procedure, shortened: (§2)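 Plants grown 8 days in standard soil in pots, then sprayed post-emergence with active ingredient in acetone/water (50:50) with 0.5% Tween 20. Glasshouse at 24/16 °C day/night, 14 h light, 65% humidity, watered twice daily. Damage scored after 13 days on a 0–5 scale (5 = total damage).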

[4] = system: Setaria fabenr (SETFA); experiment: B1 Pre-emergence herbicidal activity; design: key to Pre-emergence herbicidal activity, SETFA (damage score 0-5): 5=total damage to plant; 0=no damage to plant; conditions: pre-emergence application, evaluated after 13 days
Procedure, shortened: as §1

[5] = system: Setaria fabenri (SETFA); experiment: B2 Post-emergence herbicidal activity; design: key: 5=total damage to plant; 0=no damage to plant; conditions: post-emergence application, evaluated after 13 days
Procedure, shortened: as §2

[6] = system: Triticum aestivium (TRZAW); experiment: B2 Post-emergence herbicidal activity; design: key: 5=total damage to plant; 0=no damage to plant; conditions: post-emergence application, evaluated after 13 days
Procedure, shortened: as §2

[7] = system: Alopecurus myosuroides (ALOMY); experiment: B2 Post-emergence herbicidal activity; design: key: 5=total damage to plant; 0=no damage to plant; conditions: post-emergence application, evaluated after 13 days
Procedure, shortened: as §2

[8] = system: Avena fatua (AVEFA); experiment: B1 Pre-emergence herbicidal activity; design: key: 5=total damage to plant; 0=no damage to plant; conditions: pre-emergence application, evaluated after 13 days
Procedure, shortened: as §1

[9] = system: Triticum aestivium (TRZAW); experiment: B1 Pre-emergence herbicidal activity; design: key: 5=total damage to plant; 0=no damage to plant; conditions: pre-emergence application, evaluated after 13 days
Procedure, shortened: as §1

[10] = system: Alopecurus myosuroides (ALOMY); experiment: B1 Pre-emergence herbicidal activity; design: key: 5=total damage to plant; 0=no damage to plant; conditions: pre-emergence application, evaluated after 13 days
Procedure, shortened: as §1

[11] = system: Lolium perenne (LOLPE); experiment: B2 Post-emergence herbicidal activity; conditions: post-emergence application, evaluated after 13 days
Experimental: (§3) Seeds of a variety of test species were sown in standard soil in pots: Triticum aestivium (TRZAW), Avena fatua (AVEFA), Alopecurus myosuroides (ALOMY), Echinochloa crus-galli (ECHCG), Lolium perenne (LOLPE), Zea Mays (ZEAMX), Abutilon theophrasti (ABUTH), Amaranthus retroflexus (AMARE) and Setaria fabenri (SETFA). After 8 days cultivation (post-emergence) under controlled conditions in a glasshouse (at 24/16° C., day/night; 14 hours light; 65% humidity), the plants were sprayed with an aqueous spray solution derived from the formulation of the technical active ingredient in acetone I water (50:50) solution containing 0.5% Tween 20 (polyoxyethelyene sorbitan monolaurate, CAS RN 9005-64-5). The test plants were then grown in a glasshouse under controlled conditions (at 24/16° C., day/night; 14 hours light; 65% humidity) and watered twice daily. After 13 days, the test was evaluated (5=total damage to plant; 0=no damage to plant).

[12] = system: Avena fatua (AVEFA); experiment: B2 Post-emergence herbicidal activity; conditions: post-emergence application, evaluated after 13 days
Experimental: as §3

| SMILES | Pre-emergence herbicidal activity, ECHCG (damage score 0-5) ([1]; rate 1000 g/ha) | Pre-emergence herbicidal activity, LOLPE (damage score 0-5) ([2]; rate 1000 g/ha) | Post-emergence herbicidal activity, ECHCG (damage score 0-5) ([3]; rate 1000 g/ha) | Pre-emergence herbicidal activity, SETFA (damage score 0-5) ([4]; rate 1000 g/ha) | Post-emergence herbicidal activity, SETFA (damage score 0-5) ([5]; rate 1000 g/ha) | Post-emergence herbicidal activity, TRAZW (damage score 0-5) ([6]; rate 1000 g/ha) | Post-emergence herbicidal activity, ALOMY (damage score 0-5) ([7]; rate 1000 g/ha) | Pre-emergence herbicidal activity, AVEFA (damage score 0-5) ([8]; rate 1000 g/ha) | Pre-emergence herbicidal activity, TRAZW (damage score 0-5) ([9]; rate 1000 g/ha) | Pre-emergence herbicidal activity, ALOMY (damage score 0-5) ([10]; rate 1000 g/ha) | Post-emergence herbicidal activity, LOLPE (damage score 0-5) ([11]; rate 1000 g/ha) | Post-emergence herbicidal activity, AVEFA (damage score 0-5) ([12]; rate 1000 g/ha) | further results |
| --- | --- | --- | --- | --- | --- | --- | --- | --- | --- | --- | --- | --- | --- |
| C/C=C/C(=O)Nc1ccc(-c2cncc(F)c2)nc1C(F)(F)F [Compound C23] | 5 | 1 | 5 | 5 | 5 | 0 | 0 | 3 | 1 | 1 | 3 | 3 |  |
| CC(C)=CC(=O)N(C(=O)C=C(C)C)c1ccc(-c2cncc(F)c2)nc1C(F)(F)F [Compound C38] | 4 | 0 | 4 | 5 | 5 | 0 | 0 | 0 | 0 | 0 | 2 | 3 |  |
| COCC(=O)Nc1ccc(-c2cncc(F)c2)nc1C#N [Compound C114, N-[2-cyano-6-(5-fluoro-3-pyridyl)-3-pyridyl]-2-methoxy-acetamide] | 4 | 0 | 4 | 5 | 5 | 1 | 1 | 1 | 0 | 0 | 1 | 2 |  |
| CC(C)C(=O)N(c1ccc(-c2cncc(F)c2)nc1C(F)(F)F)C(C)C [Compound C90] | 2 | 0 | 4 | 2 | 4 | 1 | 0 | 0 | 0 | 0 | 1 | 2 |  |
| O=C(CCC1CCCC1)Nc1ccc(-c2cncc(F)c2)nc1C(F)(F)F [Compound C53] | 5 | 1 | 5 | 4 | 5 | 1 | 0 | 3 | 0 | 1 | 4 | 4 |  |
| CCCCC(=O)Nc1ccc(-c2cncc(F)c2)nc1C(F)(F)F [Compound C49] | 5 | 1 | 5 | 5 | 5 | 0 | 1 | 2 | 0 | 1 | 3 | 4 |  |
| O=C(Nc1ccc(-c2cncc(F)c2)nc1C(F)(F)F)C(Cl)Cl [Compound C26] | 5 | 1 | 5 | 5 | 5 | 1 | 0 | 2 | 0 | 0 | 4 | 4 |  |
| O=C(Nc1ccc(-c2cncc(F)c2)nc1C(F)(F)F)c1nccs1 [Compound C117] |  |  |  |  |  |  |  |  |  |  |  |  | Pre-emergence herbicidal activity, ECHCG (damage score 0-5) ([1]; rate 250 g/ha): 1; Pre-emergence herbicidal activity, LOLPE (damage score 0-5) ([2]; rate 250 g/ha): 0; Post-emergence herbicidal activity, ECHCG (damage score 0-5) ([3]; rate 250 g/ha): 1; Pre-emergence herbicidal activity, SETFA (damage score 0-5) ([4]; rate 250 g/ha): 2; Post-emergence herbicidal activity, SETFA (damage score 0-5) ([5]; rate 250 g/ha): 4; Post-emergence herbicidal activity, TRAZW (damage score 0-5) ([6]; rate 250 g/ha): 0; Post-emergence herbicidal activity, ALOMY (damage score 0-5) ([7]; rate 250 g/ha): 1; Pre-emergence herbicidal activity, AVEFA (damage score 0-5) ([8]; rate 250 g/ha): 0; Pre-emergence herbicidal activity, TRAZW (damage score 0-5) ([9]; rate 250 g/ha): 0; Pre-emergence herbicidal activity, ALOMY (damage score 0-5) ([10]; rate 250 g/ha): 0; Post-emergence herbicidal activity, LOLPE (damage score 0-5) ([11]; rate 250 g/ha): 1; Post-emergence herbicidal activity, AVEFA (damage score 0-5) ([12]; rate 250 g/ha): 3 |
| COCC(=O)Nc1ccc(-c2cncc(F)c2)nc1C(F)(F)F [Compound C27] | 5 | 1 | 5 | 5 | 5 | 1 | 1 | 3 | 0 | 0 | 3 | 4 |  |
| CCC(=O)N(CCCN(CC)CC)c1ccc(-c2cncc(F)c2)nc1C(F)(F)F [Compound C95] | 3 | 1 | 5 | 4 | 5 | 1 | 1 | 1 | 0 | 0 | 2 | 2 |  |
| Cc1nc(-c2cncc(F)c2)ccc1N(C(=O)C(C)C)C(=O)C(C)C [Compound C1] | 5 | 1 | 5 | 5 | 5 | 1 | 1 | 2 | 1 | 0 | 4 | 3 |  |
